Experimental data reported in article PMC3966057 (Theranostics, 2014).

Legend:
4T1 tumors = experiment: 18F-DPA-714 PET imaging of 4T1 xenograft tumor model; assay type: in vivo, mouse; details: PET 1 h p.i., tumor volume 100-300 mm^3, FVB mice, mean ± SD
HT29 tumors = experiment: 18F-DPA-714 PET imaging of HT29 xenograft tumor model; assay type: in vivo, mouse; details: PET 1 h p.i., tumor volume 100-300 mm^3, athymic nude mice, mean ± SD
U87MG tumors = experiment: 18F-DPA-714 PET imaging of U87MG xenograft tumor model; assay type: in vivo, mouse; details: PET 1 h p.i., tumor volume 100-300 mm^3, athymic nude mice, mean ± SD
A549 tumors = experiment: 18F-DPA-714 PET imaging of A549 xenograft tumor model; assay type: in vivo, mouse; details: PET 1 h p.i., tumor volume 100-300 mm^3, athymic nude mice, mean ± SD
INS-1 tumors = experiment: 18F-DPA-714 PET imaging of INS-1 xenograft tumor model; assay type: in vivo, mouse; details: PET 1 h p.i., tumor volume 100-300 mm^3, athymic nude mice, mean ± SD
RAW264.7 cells = experiment: RAW 264.7 macrophage cell efflux of 18F-DPA-714; assay type: cell-based, mouse; details: 2 h incubation with tracer

4T1 tumor uptake of 18F-DPA-714 (4T1 tumors): 1.22 ± 0.55 %ID/g | HT29 tumor uptake of 18F-DPA-714 (HT29 tumors): 0.91 ± 0.08 %ID/g | U87MG tumor uptake of 18F-DPA-714 (U87MG tumors): 1.69 ± 0.67 %ID/g | A549 tumor uptake of 18F-DPA-714 (A549 tumors): 0.46 ± 0.28 %ID/g | INS-1 tumor uptake of 18F-DPA-714 (INS-1 tumors): 1.13 ± 0.33 %ID/g
Compound: CCN(CC)C(=O)Cc1c(-c2ccc(OCC[18F])cc2)nn2c(C)cc(C)nc12 [18F-DPA-714]
Tracer retention after 1 h efflux as share of uptake (RAW264.7 cells): around 50%
